The subject of the series is Yap1 mRNA. The series is described as follows: Dose-dependent inhibition of human Yap1 in A-431 cells (Example 7, 10,000 cells per well, RTS36584). Type of series: cell-based. The settings on record: free uptake. The essentials: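 A-431 cells at 10,000 per well received modified oligonucleotides by free uptake at several doses. After about 48 hours, Yap1 mRNA was quantified with primer-probe set RTS36584, normalized to RIBOGREEN total RNA and expressed as % untreated control. IC50 came from linear regression on a log/linear plot.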

The mark [1] stands for this setting: 15.6 nM, A-431 cells, 10,000 cells per well, approximately 48 hours.
[2] abbreviates: 62.5 nM, A-431 cells, 10,000 cells per well, approximately 48 hours.
[3] abbreviates: 4000.00 nM, A-431 cells, 10,000 cells per well, approximately 48 hours.
The mark [4] stands for this setting: A-431 cells, approximately 48 hours, linear regression on log/linear plot.
Setting [5] is: Table 60, 15.6 nM, A-431 cells 10,000 cells per well, 48 hours.
Where [6] appears, read: Table 60, 62.5 nM, A-431 cells 10,000 cells per well, 48 hours.
Setting [7] is: Table 60, 4000.00 nM, A-431 cells 10,000 cells per well, 48 hours.
Setting [8] is: Table 60, A-431 cells 10,000 cells per well.
[9] abbreviates: Table 58, 15.6 nM, A-431 cells 10,000 cells per well, 48 hours.
The mark [10] stands for this setting: Table 58, 62.5 nM, A-431 cells 10,000 cells per well, 48 hours.
Setting [11] is: Table 58, 4000.00 nM, A-431 cells 10,000 cells per well, 48 hours.
[12] abbreviates: Table 58, A-431 cells 10,000 cells per well.
Setting [13] is: Table 59, 15.6 nM, A-431 cells 10,000 cells per well, 48 hours.
Where [14] appears, read: Table 59, 62.5 nM, A-431 cells 10,000 cells per well, 48 hours.
Setting [15] is: Table 59, 4000.00 nM, A-431 cells 10,000 cells per well, 48 hours.
Where [16] appears, read: Table 59, A-431 cells 10,000 cells per well.
Setting [17] is: Table 57, 15.6 nM, A-431 cells 10,000 cells per well, 48 hours.
The mark [18] stands for this setting: Table 57, 62.5 nM, A-431 cells 10,000 cells per well, 48 hours.
Setting [19] is: Table 57, 4000.00 nM, A-431 cells 10,000 cells per well, 48 hours.
Setting [20] is: Table 57, A-431 cells 10,000 cells per well.

Strand notation (5' to 3'): a small letter for the sugar, then the base; units joined by * are phosphorothioate-linked, units joined directly phosphodiester-linked; [ ] holds rarer units or linkages, { } end groups; capitals alone tell only the bases. k = constrained ethyl (cEt); [5mC] = 5-methylcytosine; d = 2'-deoxy (DNA)

Regarding “958795 (kT*kA*kT*dT*d[5mC]*d[5mC]*dG*d[5mC]*dA*dT*dT*dG*d[5mC]*k[5mC]*kT*kA; antisense) [compound 958795]”, the “Yap1 mRNA, % UTC” value under setting [1] was 90 % UTC; the “Yap1 mRNA, % UTC” value under setting [2] is 69 % UTC; the “Yap1 mRNA, % UTC” value under setting [3] is given as 20 % UTC. Under setting [4], this substance came in with an IC50 of 200 nM.
Regarding “958598 (k[5mC]*k[5mC]*k[5mC]*dA*dA*dT*dG*d[5mC]*dT*dA*d[5mC]*d[5mC]*d[5mC]*kA*kA*kT; antisense) [compound 958598]”, the “Yap1 mRNA, % UTC” value under setting [5] amounted to 93 % UTC; the “Yap1 mRNA, % UTC” value under setting [6] was found to be 58 % UTC; the “Yap1 mRNA, % UTC” value under setting [7] was determined as 19 % UTC. Under setting [8], this substance displayed an IC50 of 100 nM.
“958579 (kA*kT*k[5mC]*dT*dT*dA*dA*dT*d[5mC]*dT*dG*dT*dG*kG*k[5mC]*kT; antisense) [compound 958579]”: the “Yap1 mRNA, % UTC” value was 85 % UTC (Table 61, 15.6 nM, A-431 cells 10,000 cells per well, 48 hours); 52 % UTC (Table 61, 62.5 nM, A-431 cells 10,000 cells per well, 48 hours); 12 % UTC (Table 61, 4000.00 nM, A-431 cells 10,000 cells per well, 48 hours). Also, the IC50 (Table 61, A-431 cells 10,000 cells per well) was determined as 100 nM.
Take “958403 (antisense k[5mC]*kA*kG*dT*dT*dT*dA*dT*dG*dT*dA*dG*dT*kA*kG*kT) [compound 958403]”: the “Yap1 mRNA, % UTC” value runs as follows: (Table 56, 15.6 nM, A-431 cells 10,000 cells per well, 48 hours) 94 % UTC; (Table 56, 62.5 nM, A-431 cells 10,000 cells per well, 48 hours) 63 % UTC; (Table 56, 4000.00 nM, A-431 cells 10,000 cells per well, 48 hours) 12 % UTC. It took 120 nM to reach half-maximal inhibition (Table 56, A-431 cells 10,000 cells per well) (IC50).
On to “958542 (kT*kA*kT*dA*dG*dT*dA*dT*dT*d[5mC]*dT*dA*dT*k[5mC]*k[5mC]*kA; antisense) [compound 958542]”, for which the “Yap1 mRNA, % UTC” value reads like this: under setting [9], 90 % UTC; under setting [10], 70 % UTC; under setting [11], 17 % UTC. 100 nM corresponded to half-maximal inhibition under setting [12] (IC50).
Consider “958813 (kT*kT*kA*d[5mC]*dA*dG*dA*dG*dA*dG*dA*dT*dT*k[5mC]*kA*kT; antisense) [compound 958813]”, for which the “Yap1 mRNA, % UTC” value reads like this: under setting [5], 81 % UTC; under setting [6], 79 % UTC; under setting [7], 29 % UTC. Under setting [8], this substance came in with an IC50 of 200 nM.
“958658 (kA*k[5mC]*kA*dG*dT*dA*dT*dA*dA*dT*dA*dT*d[5mC]*k[5mC]*kT*kA; antisense) [compound 958658]”: the “Yap1 mRNA, % UTC” value under setting [5] amounted to 90 % UTC; the “Yap1 mRNA, % UTC” value under setting [6] was 88 % UTC; the “Yap1 mRNA, % UTC” value under setting [7] is 29 % UTC. This substance also gave an IC50 under setting [8] of 400 nM.
For “958518 (k[5mC]*k[5mC]*kA*d[5mC]*dA*dG*dT*dA*dA*dT*dA*dG*d[5mC]*kT*k[5mC]*kT; antisense) [compound 958518]”, the “Yap1 mRNA, % UTC” value under setting [13] was 95 % UTC; the “Yap1 mRNA, % UTC” value under setting [14] is listed as 55 % UTC; the “Yap1 mRNA, % UTC” value under setting [15] is on record as 4 % UTC. Besides, the IC50 under setting [16] was 100 nM.
Take “958605 (k[5mC]*kT*k[5mC]*dA*dG*dA*dT*dG*dT*dA*d[5mC]*d[5mC]*dA*kA*k[5mC]*kG; antisense) [compound 958605]”: the “Yap1 mRNA, % UTC” value by setting is: under setting [1], 76 % UTC; under setting [2], 63 % UTC; under setting [3], 9 % UTC. This substance yielded an IC50 under setting [4] of 100 nM.
Consider “958595 (k[5mC]*k[5mC]*kA*d[5mC]*dA*dT*d[5mC]*dA*dA*dG*dG*d[5mC]*dT*kA*kT*kG; antisense) [compound 958595]”, for which the “Yap1 mRNA, % UTC” value is, setting by setting: under setting [1], 83 % UTC; under setting [2], 57 % UTC; under setting [3], 16 % UTC. Under setting [4], it took 100 nM to reach half-maximal inhibition (IC50).
For “958451 (antisense k[5mC]*kA*k[5mC]*dG*dA*dT*d[5mC]*dT*dG*dA*dT*dG*d[5mC]*k[5mC]*k[5mC]*kG) [compound 958451]”, the “Yap1 mRNA, % UTC” value runs as follows: under setting [17], 98 % UTC; under setting [18], 74 % UTC; under setting [19], 23 % UTC. This substance also yielded an IC50 under setting [20] of 200 nM.
For “958472 (kT*k[5mC]*k[5mC]*dT*dT*dA*dG*dA*dT*d[5mC]*d[5mC]*dT*dT*k[5mC]*kA*k[5mC]; antisense) [compound 958472]”, the “Yap1 mRNA, % UTC” value under setting [9] is listed as 92 % UTC; the “Yap1 mRNA, % UTC” value under setting [10] turned out to be 63 % UTC; the “Yap1 mRNA, % UTC” value under setting [11] is listed as 23 % UTC. The IC50 under setting [12] is 200 nM.
For the substance “958731 (kG*k[5mC]*kT*d[5mC]*dT*dG*dT*d[5mC]*dA*dG*dT*dT*dA*kT*k[5mC]*k[5mC]; antisense) [compound 958731]”, the “Yap1 mRNA, % UTC” value reads like this: under setting [17], 85 % UTC; under setting [18], 64 % UTC; under setting [19], 19 % UTC. For the same substance, the IC50 under setting [20] is 100 nM.
The matching figures for “958786 (kT*kA*kT*dG*dT*d[5mC]*d[5mC]*dT*dA*d[5mC]*dT*dT*dT*k[5mC]*k[5mC]*k[5mC]; antisense) [compound 958786]”: 106 % UTC, 84 % UTC, 25 % UTC and 300 nM.
“958597 (k[5mC]*k[5mC]*k[5mC]*dA*dA*dT*dA*d[5mC]*dA*dA*d[5mC]*d[5mC]*dA*kA*kG*kA; antisense) [compound 958597]”: the “Yap1 mRNA, % UTC” value runs as follows: under setting [13], 104 % UTC; under setting [14], 46 % UTC; under setting [15], 20 % UTC. The same substance registered an IC50 under setting [16] of 200 nM.
With “958587 (kG*kG*kT*dG*dA*d[5mC]*dT*dG*dA*dA*dA*d[5mC]*dT*k[5mC]*kT*kA; antisense) [compound 958587]”, the “Yap1 mRNA, % UTC” value by setting is: under setting [9], 94 % UTC; under setting [10], 49 % UTC; under setting [11], 7 % UTC. Half-maximal inhibition under setting [12] (IC50) required 100 nM.
In the case of “958793 (k[5mC]*k[5mC]*kG*d[5mC]*dA*dT*dT*dG*d[5mC]*d[5mC]*dT*dA*dA*kG*kA*kG; antisense) [compound 958793]”, the “Yap1 mRNA, % UTC” value by setting is: under setting [5], 88 % UTC; under setting [6], 61 % UTC; under setting [7], 25 % UTC. The substance also returned an IC50 under setting [8] of 200 nM.
“958538 (kA*kT*k[5mC]*d[5mC]*dA*dG*dG*dG*dT*d[5mC]*dA*dA*dT*kT*kT*kT; antisense) [compound 958538]”: the “Yap1 mRNA, % UTC” value under setting [5] came out at 101 % UTC; the “Yap1 mRNA, % UTC” value under setting [6] was found to be 77 % UTC; the “Yap1 mRNA, % UTC” value under setting [7] amounted to 30 % UTC. Under setting [8], this substance showed an IC50 of 300 nM.
On to “958805 (k[5mC]*kA*kA*dG*dA*dT*dA*dA*dT*d[5mC]*dA*dT*d[5mC]*k[5mC]*kT*k[5mC]; antisense) [compound 958805]”, for which the “Yap1 mRNA, % UTC” value under setting [1] was found to be 90 % UTC; the “Yap1 mRNA, % UTC” value under setting [2] worked out at 89 % UTC; the “Yap1 mRNA, % UTC” value under setting [3] came to 28 % UTC. Also, the IC50 under setting [4] amounted to 300 nM.
For “958585 (k[5mC]*kT*k[5mC]*dT*dA*dT*d[5mC]*dA*dA*dG*dG*dT*d[5mC]*k[5mC]*k[5mC]*k[5mC]; antisense) [compound 958585]” the same measures were 95 % UTC, 71 % UTC, 17 % UTC and 200 nM.
In the case of “958537 (k[5mC]*kA*kG*dG*dG*dT*d[5mC]*dA*dA*dT*dT*dT*dT*k[5mC]*kA*kG; antisense) [compound 958537]”, the “Yap1 mRNA, % UTC” value is given as 100 % UTC under setting [9], 56 % UTC under setting [10] and 11 % UTC under setting [11]. Further, under setting [12], the IC50 came to 100 nM.
Take “958572 (kA*kT*kT*dA*dT*dA*dG*dG*d[5mC]*dA*d[5mC]*dT*d[5mC]*k[5mC]*kT*kT; antisense) [compound 958572]”: the “Yap1 mRNA, % UTC” value is 83 % UTC under setting [13], 77 % UTC under setting [14] and 22 % UTC under setting [15]. The substance also had an IC50 under setting [16] of 200 nM.
As to “958588 (kG*kT*kG*dT*dA*d[5mC]*dT*dT*dA*dG*dG*dT*dG*kA*k[5mC]*kT; antisense) [compound 958588]”, the “Yap1 mRNA, % UTC” value runs as follows: under setting [5], 93 % UTC; under setting [6], 73 % UTC; under setting [7], 27 % UTC. Moreover, the IC50 under setting [8] amounted to 200 nM.
With “958573 (kG*kG*k[5mC]*dA*dA*dA*dT*dT*dA*dT*dA*dG*dG*k[5mC]*kA*k[5mC]; antisense) [compound 958573]”, the “Yap1 mRNA, % UTC” value under setting [13] worked out at 81 % UTC; the “Yap1 mRNA, % UTC” value under setting [14] is 56 % UTC; the “Yap1 mRNA, % UTC” value under setting [15] is 8 % UTC. The substance also returned an IC50 under setting [16] of 100 nM.

By IC50 is commonly meant the concentration that inhibits the measured activity by half. A higher IC50 goes with a need for much substance.

Source of the values: patent publication US11214803B2, “Modulators of YAP1 expression” (Ionis Pharmaceuticals, Inc., priority 2019, dated 2022).
